From patent publication US9265837B1, “5α-androstane-3β,5,6β-triol injection and preparation method therefor” (Guangzhou Cellprotek Pharmaceuticals Ltd., priority 2010, dated 2016) come the findings set out here.

Series [1] in a line: Acute toxicity (LD50), i.v. via tail vein, one-week observation. The settings on record: both sexes, mouse, in vivo, iv, Kunming mice, YC-6 injection of Example 3 (20 mg/ml). The method, then:
Kunming mice were caged by weight and randomly divided into 5 groups. Each group had 10 mice, with half males and half females. The YC-6 injection 10 prepared in Example 3 (20 mg/ml) was i.v. administrated via tail vein at different doses. All mice were sacrificed after one-week observation. The toxic reaction and number of death of the animals were recorded every day. LD50 and 95% confidence were calculated.

The next series in a line: Solubility in water. The series is classed as physicochemical. The settings on record: background statement, no test described.

SMILES strings stand for the structures.

A word on the LD50: it is the dose expected to kill half of the subjects tested. A low value points to a more toxic substance. In series [1], `C[C@@]12CCC[C@H]1[C@@H]1C[C@@H](O)[C@@]3(O)C[C@@H](O)CC[C@]3(C)[C@H]1CC2` [YC-6, 5α-androstane-3β,5,6β-triol] returned an LD50 at 1 week of over 400 mg/kg. Further, the Solubility in water result in the series “Solubility in water” is given as “low solubility in water”.
